According to patent US6385487B1, “Methods for electrokinetic delivery of medicaments” (Biophoretic Therapeutic Systems, LLC, priority 1996, dated 2002):

Assays:
[1] = tested on: mucocutaneous Herpes Simplex (Type I and Type II) eruptions; assay: Clinical study: iontophoretic application of antiviral agent to herpes lesions (Stage 1 treatment); format: in vivo, human; details: for No response (count, Stage 1 treatment results) / Some response (count, Stage 1 treatment results): iontophoretic 10-15 minute application to lesion, 0.2 ma-0.6 ma, evaluated in 24 hours; for Major response (count, Stage 1 treatment results): iontophoretic 10-15 minute application, major response = resolution of pain in <6 hours and lesion crusted and healing within 24 hours
Description: The inventor has conducted a clinical study using a prototype iontophoretic device in accordance with the present invention for the treatment of cold sores. The clinical response was promising. A second independent, qualified investigator, a board-certified Urologist, conducted a study using the present apparatus and method for treating male genital herpes lesions with encouraging results. Table 1 summarizes data (discussed below) supporting the claim to unexpected clinical benefits treating disease with this novel method. The method and medicament application device when used together for treating these common, embarrassing, and previously not easily-treatable ailments provide surprising advantages.
The embodiment of the device shown in FIG. 1 and described hereinabove is an improvement over the prototype used in the clinical study, which was a larger unit, not user-friendly, which required physically connecting wires to the patient's body which created anxiety, and could not be used without attending personnel. Notwithstanding design, the apparatus used in the clinical study summarized in Table 1 employed electronics similar to the apparatus described herein and was used to optimize the clinical performance of the embodiment 12 of the device described herein.
(§1) The clinical studies included patient volunteers with full informed consent who suffered from recurrent cold sores. […] The treatment incorporated an electrode saturated with Acyclovir® ointment (ZOVIRAX®) or IUDR (STOXIL®) ophthalmic drops as supplied by the manufacturer. Thus mounted Anodic electrode of the prototype system was used for a 10-15 minute application directly to the lesion with the average current setting of 0.2 ma-0.6 ma which was well tolerated by all patients.
(§2) The lesion was evaluated in 24 hours. In 92% of the iontophoretically treated cases (>70 lesions treated) a major response was noted. A major response was categorized by resolution of pain in <6 hours and lesion crusted and healing within 24 hours. The normal course of cold sores involves an average period of 10-12 days before resolution and healing occurs. The present apparatus and clinical method for treatment of mucocutaneous Herpes Simplex (Type I and Type II) eruptions presented herein have been described and performed with excellent results. This novel user-friendly apparatus in combination with the disclosed clinical treatment method presents a very effective new treatment for Herpes Simplex eruptions.

herpes lesions = assay: Control group: patients with concurrent herpes lesions, one treated iontophoretically, the other by repeated topical application of the same agent; format: in vivo, human; details: for Major Response (count), Control lesion / No Response (count), Control lesion / Some Response (count), Control lesion: repeated unassisted topical application of the same antiviral agent; for Major Response (count), Treated lesion / No Response (count), Treated lesion / Some Response (count), Treated lesion: iontophoretically treated lesion, single 10-15 minute treatment; for Outcome of unassisted topically treated lesions: repeated topical application, compared with resolution in 24 hours; for Outcome of iontophoretically treated lesions: single 10-15 minute iontophoretic treatment, all treated lesions
Protocol: The study included a control situation wherein seven patients were found who had simultaneous concurrent herpes lesions at separate locations on their bodies. In each case, one lesion was treated with iontophoretic application of antiviral agent (Acyclovir® or IUDR) and the other lesion was treated in the standard method employed in the prior art comprising repeated topical application of the same antiviral agent.
as §1, §2

Compound	No response (count, Stage 1 treatment results) [1]	Some response (count, Stage 1 treatment results) [1]	Major response (count, Stage 1 treatment results) [1]	Major Response (count), Control lesion (herpes lesions)	No Response (count), Control lesion (herpes lesions)	Some Response (count), Control lesion (herpes lesions)	Major Response (count), Treated lesion (herpes lesions)	No Response (count), Treated lesion (herpes lesions)	Some Response (count), Treated lesion (herpes lesions)	Outcome of unassisted topically treated lesions (herpes lesions)	Outcome of iontophoretically treated lesions (herpes lesions)
Nc1nc2c(ncn2COCCO)c(=O)[nH]1 [ACYCLOVIR ®, 2-amino-1,9-dihydro-9-[(2-hydroxyethoxy)methyl]-6H-purin-6-one]	1	3	42	0	1	0	1	0	0	none of the unassisted topically treated lesions demonstrated a similar response	resolution in 24 hours
O=c1[nH]c(=O)n([C@H]2C[C@H](O)[C@@H](CO)O2)cc1I [IUDR, 5-iodo-2 deoxyuridine]	1	1	26	0	5	2	7	0	0	none of the unassisted topically treated lesions demonstrated a similar response	resolution in 24 hours
